Source: patent publication US8933228B2, “Respiratory formulations and compounds for use therein” (Respivert, Ltd., priority 2010, dated 2015)

Key:
[1] = system: TNFα release in d-U937 cells; assay: LPS-induced TNFα release in d-U937 cells; format: cell-based; settings: Homo sapiens, dU937, LPS 0.1 μg/mL, 4 hr, relative to 10 μg/mL BIRB796, read-out: d-U937 (LPS) TNFα REC50
In short: (§1)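 U937 cells made macrophage-like by 48–72 h with PMA (100 ng/mL), then stimulated with LPS (E. coli O111:B4) for 4 h. Supernatant TNFα and IL-8 measured by sandwich ELISA; inhibition versus vehicle control at each concentration, REC50 from concentration-response curve.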

HRV16 = assay: Rhinovirus-titre assay; format: cell-based, human rhinovirus; settings: HRV16; for inhibition at 0.04 µg/mL: Human rhinovirus sp., cell not marked b, test compounds 0.04 μg/mL per method (footnote b, 0.2 μg/mL), read-out: HRV titre (inhibitory %): % inhibition observed vs. HRV16 infection control
[2] = system: TNFα release in THP-1 cells; assay: LPS-induced TNFα release in THP-1 cells; format: cell-based; settings: Homo sapiens; THP-1 cells, LPS 3 μg/mL, 4 hr; read-out: THP1 (LPS) TNFα IC50
Protocol: The inhibition of TNFα production was calculated at each concentration by comparison with vehicle control.

[3] = system: ICAM-1 expression in BEAS2B cells; assay: Poly I:C-induced ICAM-1 induction in BEAS2B cells; format: cell-based; settings: Homo sapiens, BEAS-2B; BEAS2B cells, poly I:C 1 μg/mL, 18 hr; read-out: BEAS2B (polyIC) ICAM1 IC50
In short: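 Human bronchial epithelial BEAS2B cells pre-incubated 2 hr with test compounds at final concentrations, then transfected with poly I:C (1 μg/mL) using Oligofectamine. Cell-surface ICAM-1 quantified by cell-based ELISA with HRP-conjugated anti-rabbit IgG secondary.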

cSrc enzyme = cSrc enzyme (Homo sapiens (Human), UniProt P12931); assay: c-SRC enzyme inhibition assay (FRET, Z'-LYTE); format: biochemical; settings: read-out: Enzyme Profile: IC50 Values cSrc
[4] = system: Differentiated U937 cells; assay: MTT assay: cell viability; format: cell-based, human; settings: 1 μg/ml; for d-U937 MTT Assay 4 h: 5% FCS; for d-U937 MTT Assay 24 h: 10% FCS
In short: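 Differentiated U937 cells pre-incubated with compound either 4 hr in 5% FCS or 24 h in 10% FCS, then 1 hr MTT. Formazan dissolved in DMSO, absorbance at 550 nm. Percentage viability loss relative to 0.5% DMSO vehicle; apparent increases appear as negative percentages.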

[5] = system: IL-8 release in d-U937 cells; assay: LPS-induced IL-8 release in d-U937 cells; format: cell-based; settings: Homo sapiens, dU937; d-U937 cells, LPS 0.1 μg/mL, 4 hr; read-out: d-U937 (LPS) IL-8 IC50
In short: as §1

p38 MAPK γ (MAPK12) = p38 MAPK γ (MAPK12) (Homo sapiens (Human), UniProt P53778); assay: Enzyme inhibition assay (FRET, Z-LYTE), p38 MAPK gamma; format: biochemical; settings: read-out: Enzyme Profile: IC50 Values p38γ
In short: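 Recombinant phosphorylated human p38γ preincubated with compound 2 hr at RT in HEPES buffer, then reacted 1 hr with 2 μM FRET peptide and 100 μM ATP. Protease development 1 hr; phosphorylation derived from coumarin/fluorescein emission ratio.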

p38 MAPK alpha (MAPK14) = p38 MAPK alpha (MAPK14) (Homo sapiens (Human), UniProt Q16539); assay: Enzyme inhibition assay (FRET, Z-LYTE), p38 MAPK alpha via MAPKAP-K2 activation; format: biochemical; settings: read-out: Enzyme Profile: IC50 Values p38α
In short: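 Recombinant p38 MAPKα was preincubated with compound 2 hr at RT. Its activity was measured indirectly through MAPKAP-K2 activation/phosphorylation, read by Z-LYTE FRET after 1 hr protease development. Phosphorylation was taken from the coumarin/fluorescein emission ratio.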

HCK enzyme = HCK enzyme (Homo sapiens (Human), UniProt P08631); assay: HCK enzyme inhibition assay (FRET, Z'-LYTE); format: biochemical; settings: read-out: Enzyme Profile: IC50 Values HCK

SMILES	EC50 [1] [nM]	IC50 [2] [nM]	IC50 (cSrc enzyme) [nM]	IC50 [5] [nM]	IC50 (p38 MAPK γ (MAPK12)) [nM]	IC50 (p38 MAPK alpha (MAPK14)) [nM]	IC50 (HCK enzyme) [nM]	inhibition at 0.04 µg/mL (HRV16) [%]	IC50 [3] [nM]	d-U937 MTT Assay 4 h [4]	d-U937 MTT Assay 24 h [4]	NBEC (HRV) HRV titre Relative anti-viral activity (HRV16; at 0.04 μg/mL vs. pleconaril at 0.1 μg/mL)
CCn1c(=O)[nH]c2nccc(Oc3ccc(NC(=O)Nc4cc(C(C)(C)C)nn4-c4ccc(OC)cc4)c4ccccc34)c21 [Example 11]	0.7	4	9	1.6	348	2	5	60	3.6	− (− and + indicate the result is below and above the no significant effect threshold, respectively (<30% inhibition at a concentration of 1 μg/ml))	− (− and + indicate the result is below and above the no significant effect threshold, respectively (<30% inhibition at a concentration of 1 μg/ml))	–
Cc1nc2c(Oc3ccc(NC(=O)Nc4cc(C(C)(C)C)nn4-c4ccccc4)c4ccccc34)ccnc2[nH]c1=O [Example 7, 1-(3-(tert-butyl)-1-phenyl-1H-pyrazol-5-yl)-3-(4-((2-methyl-3-oxo-3,4-dihydropyrido[2,3-b]pyrazin-8-yl)oxy)naphthalen-1-yl)urea]	1.7	7	7	4.2	100	3	3	60	3	− (− and + indicate the result is below and above the no significant effect threshold, respectively (<30% inhibition at a concentration of 1 μg/ml))	− (− and + indicate the result is below and above the no significant effect threshold, respectively (<30% inhibition at a concentration of 1 μg/ml))	–
COc1ccc(-n2nc(C(C)(C)C)cc2NC(=O)Nc2ccc(Oc3ccnc4[nH]c(=O)[nH]c34)c3ccccc23)cc1 [Example 9]	3.1	1.6	7	27	119	21	< 2	36	24	− (− and + indicate the result is below and above the no significant effect threshold, respectively (<30% inhibition at a concentration of 1 μg/ml))	− (− and + indicate the result is below and above the no significant effect threshold, respectively (<30% inhibition at a concentration of 1 μg/ml))	3.2
COc1cc(-n2nc(C(C)(C)C)cc2NC(=O)Nc2ccc(Oc3ccnc4[nH]c(=O)cnc34)c3ccccc23)ccc1CO [Example 18, 1-(3-(tert-Butyl)-1-(4-(hydroxymethyl)-3-methoxyphenyl)-1H-pyrazol-5-yl)-3-(4-((3-oxo-3,4-dihydropyrido[2,3-b]pyrazin-8-yl)oxy)naphthalen-1-yl)urea]	12	17	6	7.4	24	5	5	80	15	− (− and + indicate the result is below and above the no significant effect threshold, respectively (<30% inhibition at a concentration of 1 μg/ml))	− (− and + indicate the result is below and above the no significant effect threshold, respectively (<30% inhibition at a concentration of 1 μg/ml))	–

Further lines, with some results ahead:

EC50 [1] [nM]	IC50 [2] [nM]	IC50 (cSrc enzyme) [nM]	IC50 [5] [nM]	IC50 (p38 MAPK γ (MAPK12)) [nM]	IC50 (p38 MAPK alpha (MAPK14)) [nM]	IC50 (HCK enzyme) [nM]	SMILES	inhibition at 0.04 µg/mL (HRV16) [%]	IC50 [3] [nM]	d-U937 MTT Assay 4 h [4]	d-U937 MTT Assay 24 h [4]	NBEC (HRV) HRV titre Relative anti-viral activity (HRV16; at 0.04 μg/mL vs. pleconaril at 0.1 μg/mL)
1.8	1.6	12	8.1	50	4	5	COc1ccc(-n2nc(C(C)(C)C)cc2NC(=O)Nc2ccc(Oc3ccnc4[nH]c(=O)cnc34)c3ccccc23)cc1 [Example 25, 1-(3-(tert-butyl)-1-(4-methoxyphenyl)-1H-pyrazol-5-yl)-3-(4-((3-oxo-3,4-dihydropyrido[2,3-b]pyrazin-8-yl)oxy)naphthalen-1-yl)urea]	36	8.3	− (− and + indicate the result is below and above the no significant effect threshold, respectively (<30% inhibition at a concentration of 1 μg/ml))	− (− and + indicate the result is below and above the no significant effect threshold, respectively (<30% inhibition at a concentration of 1 μg/ml))	–
1.3	2.1	7	1.6	35	2	4	COc1ccc(-n2nc(C(C)(C)C)cc2NC(=O)Nc2ccc(Oc3ccnc4[nH]c(=O)cnc34)c(Cl)c2Cl)cc1 [Example 19, 1-(3-(tert-Butyl)-1-(4-methoxyphenyl)-1H-pyrazol-5-yl)-3-(2,3-dichloro-4-((3-oxo-3,4-dihydropyrido[2,3-b]pyrazin-8-yl)oxy)phenyl)urea]	80	0.6	− (− and + indicate the result is below and above the no significant effect threshold, respectively (<30% inhibition at a concentration of 1 μg/ml))	− (− and + indicate the result is below and above the no significant effect threshold, respectively (<30% inhibition at a concentration of 1 μg/ml))	–
> 1730	> 1730	406	> 1730	2620	17	458	COc1ccc(-n2nc(C(C)(C)C)cc2NC(=O)Nc2ccc(Oc3ncnc4[nH]c(=O)cnc34)c3ccccc23)cc1 [Example 22]	8	> 173	− (− and + indicate the result is below and above the no significant effect threshold, respectively (<30% inhibition at a concentration of 1 μg/ml))	− (− and + indicate the result is below and above the no significant effect threshold, respectively (<30% inhibition at a concentration of 1 μg/ml))	–
3.4	13	8	16	44	6	3	COc1ccc(-n2nc(C(C)(C)C)cc2NC(=O)Nc2ccc(Oc3ccnc4[nH]c(=O)cnc34)c3ccccc23)cn1 [Example 20]	36	21	− (− and + indicate the result is below and above the no significant effect threshold, respectively (<30% inhibition at a concentration of 1 μg/ml))	− (− and + indicate the result is below and above the no significant effect threshold, respectively (<30% inhibition at a concentration of 1 μg/ml))	–
6.2	13	5	4.1	43	2	3	CC(C)(C)c1cc(NC(=O)Nc2ccc(Oc3ccnc4[nH]c(=O)cnc34)c3ccccc23)n(-c2ccccc2)n1 [Example 5, 1-(3-(tert-butyl)-1-phenyl-1H-pyrazol-5-yl)-3-(4-((3-oxo-3,4-dihydropyrido[2,3-b]pyrazin-8-yl)oxy)naphthalen-1-yl) urea]	36	6.6	− (− and + indicate the result is below and above the no significant effect threshold, respectively (<30% inhibition at a concentration of 1 μg/ml))	− (− and + indicate the result is below and above the no significant effect threshold, respectively (<30% inhibition at a concentration of 1 μg/ml))	–
